Data: PubChem BioAssay AID330 (DTP/NCI, 2004)
Where “and” joins values, the source holds several entries; their conditions need not be identical. Equal entries are not always repeated. Inconclusive results and toxic doses are left out.

Test system: P388 leukemia ip, CD2F1 mice, survival T/C
Experiment: NCI In Vivo Anticancer Drug Screen. Data for tumor model P388 Leukemia (intraperitoneal) in CD2F1 (CDF1) mice
Conditions: endpoint: median survival time, higher = longer survival
Method in brief: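 Mice carrying the transplanted tumor received test compound or vehicle. Survival was recorded in each group, and the value is the treated-group measurement divided by that of the vehicle-treated control group.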

[1] = dose: 25.0 mg/kg/injection, schedule: Q04DX003 (ip), vehicle: saline
[2] = dose: 50.0 mg/kg/injection, schedule: Q01DX009 (ip), vehicle: saline
[3] = dose: 50.0 mg/kg/injection, schedule: Q04DX003 (ip), vehicle: saline
[4] = dose: 100.0 mg/kg/injection, schedule: Q01DX009 (ip), vehicle: saline
[5] = dose: 100.0 mg/kg/injection, schedule: Q04DX003 (ip), vehicle: saline
[6] = dose: 25.0 mg/kg/injection, schedule: Q01DX009 (ip), vehicle: saline with Tween-80
[7] = dose: 50.0 mg/kg/injection, schedule: Q01DX009 (ip), vehicle: saline with Tween-80
[8] = dose: 100.0 mg/kg/injection, schedule: Q01DX009 (ip), vehicle: saline with Tween-80
[9] = dose: 200.0 mg/kg/injection, schedule: Q01DX009 (ip), vehicle: saline with Tween-80
[10] = dose: 50.0 mg/kg/injection, schedule: Q01DX009 (ip), vehicle: Klucel (hydroxypropylcellulose) (HPC)
[11] = dose: 50.0 mg/kg/injection, schedule: Q01DX005 (ip), vehicle: saline
[12] = dose: 60.0 mg/kg/injection, schedule: Q01DX005 (ip), vehicle: Klucel (hydroxypropylcellulose) (HPC)
[13] = dose: 25.0 mg/kg/injection, schedule: Q04DX002 (ip), vehicle: saline with Tween-80
[14] = dose: 50.0 mg/kg/injection, schedule: Q01DX005 (ip), vehicle: Klucel (hydroxypropylcellulose) (HPC)
[15] = dose: 100.0 mg/kg/injection, schedule: Q01DX005 (ip), vehicle: Klucel (hydroxypropylcellulose) (HPC)

For `NC(N)=N/N=C/C=N/N=C(N)N`, the T/C (dose: 6.25 mg/kg/injection, schedule: Q01DX009 (ip), vehicle: saline) was 118 % of control, the T/C (dose: 6.25 mg/kg/injection, schedule: Q04DX003 (ip), vehicle: saline) was 100 % of control and the T/C (dose: 12.5 mg/kg/injection, schedule: Q01DX009 (ip), vehicle: saline) was 100 % of control. The T/C (dose: 25.0 mg/kg/injection, schedule: Q01DX009 (ip), vehicle: saline) was 95 % of control and 100 % of control, the T/C [1] was 90 % of control and 100 % of control and the T/C [2] was 86 % of control and 100 % of control. The T/C [3] was 100 % of control, the T/C [4] was 86 % of control and the T/C [5] was 95 % of control and 100 % of control.

For `O=C(CCS(=O)(=O)CCC(=O)c1ccc2ccccc2c1)c1ccc2ccccc2c1`, the T/C [1] was 102 % of control, the T/C [3] was 99 % of control and the T/C [5] was 92 % of control and 98 % of control. For the same compound, the T/C (dose: 400.0 mg/kg/injection, schedule: Q04DX003 (ip), vehicle: saline) was 88 % of control.

For `Nc1nc2nc[nH]c2c(=O)[nH]1`, the T/C [6] was 97 % of control, the T/C [7] was 98 % of control and the T/C [8] was 90 % of control. The T/C (dose: 100.0 mg/kg/injection, schedule: Q01DX009 (ip), vehicle: suspension in saline) was 97 % of control, the T/C [9] was 90 % of control and the T/C (dose: 200.0 mg/kg/injection, schedule: Q01DX009 (ip), vehicle: suspension in saline) was 92 % of control. The T/C (dose: 400.0 mg/kg/injection, schedule: Q01DX009 (ip), vehicle: suspension in saline) was 87 % of control.

In the case of `C1CC[N-]CC1.C1CC[N-]CC1.C1CC[N-]CC1.C1CC[N-]CC1.O=S(=O)(O)O.[Cu+2]`, the T/C (dose: 10.0 mg/kg/injection, schedule: Q04DX002 (ip), vehicle: saline) is reported as 100 % of control and the T/C (dose: 20.0 mg/kg/injection, schedule: Q04DX002 (ip), vehicle: saline) is reported as 110 % of control.

With `Cc1nn(C)c(=O)[nH]c1=O` the T/C (dose: 50.0 mg/kg/injection, schedule: Q01DX005 (ip), vehicle: saline with Tween-80) was 103 % of control, the T/C (dose: 100.0 mg/kg/injection, schedule: Q01DX005 (ip), vehicle: saline with Tween-80) was 106 % of control and the T/C (dose: 200.0 mg/kg/injection, schedule: Q01DX005 (ip), vehicle: saline with Tween-80) was 106 % of control.

With `OC1CC(OCc2ccccc2)CC1O` (stereo not given) the T/C [7] was 103 % of control, the T/C [8] was 97 % of control and the T/C [9] was 103 % of control.

For `O=C(O)C1C2OC(C(Cl)C2Cl)C1C(=O)O` (stereo not given), the T/C (dose: 15.0 mg/kg/injection, schedule: Q01DX005 (ip), vehicle: saline) was 97 % of control, the T/C (dose: 30.0 mg/kg/injection, schedule: Q01DX005 (ip), vehicle: saline) was 94 % of control and the T/C (dose: 60.0 mg/kg/injection, schedule: Q01DX005 (ip), vehicle: saline) was 95 % of control. For the same compound, the T/C (dose: 120.0 mg/kg/injection, schedule: Q01DX005 (ip), vehicle: saline) was 87 % of control.

For `C=Cc1cnc([N+](=O)[O-])n1C`, the T/C [10] was 110 % of control and 123 % of control, the T/C (dose: 100.0 mg/kg/injection, schedule: Q01DX009 (ip), vehicle: Klucel (hydroxypropylcellulose) (HPC)) was 111 % of control and the T/C (dose: 200.0 mg/kg/injection, schedule: Q01DX009 (ip), vehicle: Klucel (hydroxypropylcellulose) (HPC)) was 153 % of control.

For `N#CC(C#N)=CC(C#N)C#N`, the T/C (dose: 12.5 mg/kg/injection, schedule: Q01DX005 (ip), vehicle: saline) was 104 % of control, the T/C (dose: 25.0 mg/kg/injection, schedule: Q01DX005 (ip), vehicle: saline) was 101 % of control and the T/C [11] was 107 % of control and 92 % of control.

`O=C1NCCCC1(c1ccccc1)c1ccccc1` was tested, and the T/C [2] was 98 % of control, the T/C [4] was 102 % of control and the T/C (dose: 200.0 mg/kg/injection, schedule: Q01DX009 (ip), vehicle: saline) was 97 % of control.

With `Cc1cccc2c(=O)n3c(cc12)-c1[nH]c2ccccc2c1CC3` the T/C [12] was 103 % of control, the T/C (dose: 120.0 mg/kg/injection, schedule: Q01DX005 (ip), vehicle: Klucel (hydroxypropylcellulose) (HPC)) was 97 % of control and the T/C (dose: 240.0 mg/kg/injection, schedule: Q01DX005 (ip), vehicle: Klucel (hydroxypropylcellulose) (HPC)) was 96 % of control.

`CC(=O)OCC12C(=O)C(O)C(C)C3(CC(c4ccoc4)OC3OC(C)=O)C1CCCC21CO1` (stereo not given) was tested, and the T/C (dose: 15.0 mg/kg/injection, schedule: Q01DX005 (ip), vehicle: Klucel (hydroxypropylcellulose) (HPC)) was 105 % of control, the T/C (dose: 30.0 mg/kg/injection, schedule: Q01DX005 (ip), vehicle: Klucel (hydroxypropylcellulose) (HPC)) was 105 % of control and the T/C [12] was 100 % of control.

`Cc1cc(=O)[nH]c(=O)n1C1OC(CO)C(O)C1O` (stereo not given) was tested, and the T/C [11] was 109 % of control, the T/C (dose: 100.0 mg/kg/injection, schedule: Q01DX005 (ip), vehicle: saline) was 103 % of control and the T/C (dose: 200.0 mg/kg/injection, schedule: Q01DX005 (ip), vehicle: saline) was 112 % of control.

With `CN=C(N)N/N=C(\C)c1ccc(/C(C)=N/NC(N)=NC)cc1` the T/C [13] was 112 % of control.

`CCCC1(C)COC(c2ccc(OC)cc2)OC1` (stereo not given) was tested, and the T/C [7] was 103 % of control, the T/C (dose: 100.0 mg/kg/injection, schedule: Q01DX001 (ip), vehicle: saline with Tween-80) was 109 % of control and the T/C [8] was 112 % of control. For the same compound, the T/C (dose: 200.0 mg/kg/injection, schedule: Q01DX001 (ip), vehicle: saline with Tween-80) was 102 % of control, the T/C [9] was 103 % of control and the T/C (dose: 400.0 mg/kg/injection, schedule: Q01DX001 (ip), vehicle: saline with Tween-80) was 104 % of control.

With `CCOC(=O)c1ccnc2ccc3ccccc3c12` the T/C [14] was 105 % of control, the T/C [15] was 102 % of control and the T/C (dose: 200.0 mg/kg/injection, schedule: Q01DX005 (ip), vehicle: Klucel (hydroxypropylcellulose) (HPC)) was 96 % of control.

`O=S(=O)(O)CC[S][Sn]([S]CCS(=O)(=O)O)([c]1ccccc1)[c]1ccccc1` was tested, and the T/C (dose: 3.75 mg/kg/injection, schedule: Q01DX005 (ip), vehicle: Klucel (hydroxypropylcellulose) (HPC)) was 153 % of control.

`CCOC(=O)/C=C/C(=O)N1CCN(C(=O)/C=C/C(=O)OCC)C(C)C1` (stereo not given) was tested, and the T/C [14] was 113 % of control, the T/C (dose: 90.0 mg/kg/injection, schedule: Q01DX005 (ip), vehicle: Klucel (hydroxypropylcellulose) (HPC)) was 108 % of control and the T/C [15] was 116 % of control. The T/C (dose: 133.0 mg/kg/injection, schedule: Q01DX005 (ip), vehicle: Klucel (hydroxypropylcellulose) (HPC)) was 112 % of control.

`COCCOC1=C(N2CC2)C(=O)C(OCCOC)=C(N2CC2)C1=O` was tested, and the T/C (dose: 1.87 mg/kg/injection, schedule: Q01DX009 (ip), vehicle: saline) was 204 % of control, the T/C (dose: 2.2 mg/kg/injection, schedule: Q04DX003 (ip), vehicle: saline) was 113 % of control and the T/C (dose: 3.3 mg/kg/injection, schedule: Q04DX003 (ip), vehicle: saline) was 122 % of control. For the same compound, the T/C (dose: 3.75 mg/kg/injection, schedule: Q01DX009 (ip), vehicle: saline) was 118 % of control.

With `Fc1cccc(CSC(=S)Nc2ccccc2)c1` the T/C (dose: 100.0 mg/kg/injection, schedule: Q01DX001 (ip), vehicle: saline) was 106 % of control, the T/C (dose: 200.0 mg/kg/injection, schedule: Q01DX001 (ip), vehicle: saline) was 102 % of control and the T/C (dose: 400.0 mg/kg/injection, schedule: Q01DX001 (ip), vehicle: saline) was 102 % of control.

With `CCn1c(S)c(N=NC(=S)c2ccc3ccccc3n2)c2ccccc21` the T/C [3] was 98 % of control, the T/C [5] was 96 % of control and the T/C (dose: 200.0 mg/kg/injection, schedule: Q04DX003 (ip), vehicle: saline) was 103 % of control.

In the case of `C[C@H]1O[C@H](C)[C@H](O)C2=C1C(=O)c1ccccc1C2=O`, the T/C (dose: 12.5 mg/kg/injection, schedule: Q04DX002 (ip), vehicle: saline with Tween-80) is reported as 100 % of control and 95 % of control, the T/C [13] is reported as 99 % of control and 100 % of control and 96 % of control and the T/C (dose: 50.0 mg/kg/injection, schedule: Q04DX002 (ip), vehicle: saline with Tween-80) is reported as 99 % of control and 110 % of control and 94 % of control.

For `c1cnc2nsnc2c1`, the T/C (dose: 12.5 mg/kg/injection, schedule: Q01DX009 (ip), vehicle: Klucel (hydroxypropylcellulose) (HPC)) was 100 % of control, the T/C (dose: 25.0 mg/kg/injection, schedule: Q01DX009 (ip), vehicle: Klucel (hydroxypropylcellulose) (HPC)) was 97 % of control and the T/C [10] was 100 % of control and 106 % of control.

With `COc1cccc(S(=O)c2ccc([N+](=O)[O-])c3no[n+]([O-])c23)c1` (stereo not given) the T/C (dose: 3.75 mg/kg/injection, schedule: Q01DX009 (ip), vehicle: saline with Tween-80) was 95 % of control, the T/C (dose: 7.5 mg/kg/injection, schedule: Q01DX009 (ip), vehicle: saline with Tween-80) was 104 % of control and the T/C (dose: 15.0 mg/kg/injection, schedule: Q01DX009 (ip), vehicle: saline with Tween-80) was 112 % of control.

For `CNc1ncnc2ccccc12`, the T/C [6] was 100 % of control, the T/C [7] was 95 % of control and the T/C [8] was 89 % of control.

With `COC(=O)CCc1onc(Br)c1CCl` the T/C [7] was 110 % of control, the T/C [8] was 115 % of control and the T/C [9] was 119 % of control.
